Source: patent US20160050895A1, “TRANSGENIC NON-HUMAN ORGANISMS WITH NON-FUNCTIONAL TSPO GENES” (AUSTRALIAN NUCLEAR SCIENCE AND TECHNOLOGY ORGANIZATION, priority 2013, published 2016)

Columns and labels:
[1] = test system: TSPO; assay: Radioligand membrane saturation binding with 3H-PK11195; set-up: species or system mouse; details: renal tissue samples; TSPO knock-out mice
Method: Tissue samples were homogenised with T25 digital Ultra-Turrax homogenizer (Ika, Wilmington, N.C., USA) at speed setting 5 or 20000 rpm in approximately 45 mL of ice-cold TRIS buffer (pH 7.4), collected by centrifugation at 48000 g and the supernatant was then discarded. The procedure was then immediately repeated, this acts as an extra wash step to remove any soluble interfering substances to radioligand binding (Byland et al. 1993). Following the second centrifugation and removal ofsupernatant the samples were resuspended in approximately 50 volumes of ice-cold TRIS buffer (pH 7.4). Samples were aliquoted stored in −80° C. until required.
For TSPO knock-out mice studies, radioligand binding was performed using 3H-PK11195 racemate across a range of concentrations (FIG. 4). PK11195 is a TSPO specific probe. Total and non-specific binding was determined through 8 concentrations of 3H-PK11195 ranging from 0.56 nM to 20 nM. Non-specific binding was determined by the addition of 5 μM PK11195 to all concentrations of 3H-PK11195. […]
Organs were homogenised, washed twice in ice-cold 50 mM Tris-HCl (pH 7.4) by centrifugation at 48000×g, resuspended in 50 volumes of ice-cold 50 mM Tris-HCl, and protein concentration was determined using a BCA protein assay kit (Thermo Fisher Scientific). […] Non-specific binding was determined with 5 μM PK11195. […]

[2] = target: T1, TSPO (Mus musculus, UniProt P50637); assay: Receptor film autoradiography of tissue sections with [3H]PK11195 and [125I]CLINDE; format: binding; set-up: Snap-frozen tissues were sectioned at 20 μm in a cryostat; from tissue; host or cells: mouse organ sections (brain, retina/eye, heart, adrenal, kidney, testis, spleen), C57BL/6 background; details: 10 μM unlabelled ligand; tissue sections from TSPO+/+ and TSPO+/- mice
Method: Snap-frozen tissues were sectioned at 20 μm in a cryostat, thaw mounted on poly-L-lysine-coated slides and stored at −80° C. until day of experiment. On the day of the experiment, slides were thawed at room temperature and air dried with a cool stream of air. Total and non-specific binding were determined by incubation with 1 nM of 3H-PK11195 with or without the presence of 3 μM of PK11195 in 130 mM TRIS-HCl buffer (pH 7.4) at room temperature for 20 minutes. Following incubation, the slides were briefly dipped twice in 130 mM TRIS-HCl buffer, washed twice for 5 minutes in fresh 130 mM TRIS-HCl at room temperature. The slides were finally briefly rinsed 3 times in chilled distilled H2O, dried under a cool stream of air and allowed to air dried overnight. Sections were exposed to Kodak BioMax MR film along with tritium microscales with known activity concentrations in X-ray film cassettes. Films were developed after 33 days and digitized using a GS800 Calibrated Densitometer (Bio-Rad, Hercules, Calif., USA). Images were analysed with Quantity One imaging analysis program (Bio-Rad, Hercules, Calif. USA); to assess the level of 3H-PK11195 binding, regions of interest were drawn over the tissue and an average optical density/mm^2 was calculated. Data obtained from an individual film, subject to interfilm variations, were normalized against other films through the optical density oftritium microscales.
The organs including brain, retina, heart, kidney and testes used for film autoradiography were dissected from wild-type (TSPO^+/+), heterozygous (TSPO^+/−), and homozygous (TSPO^−/−) mice and snap-frozen in liquid nitrogen. Cryostat organ sections at 18 μm were placed onto superfrost slides (Menzel-Glaser, Braunschweig, Germany) and stored in the dark at −20° C. for no longer than 1 week before the experiment. […] Tritium standards (Amersham Biosciences, Uppsala, Sweden) co-exposed with the organ sections on each Hyperfilm-^3H (Kodak Film) at 4° C. for 60 days, were used to quantify the autoradiographically measured binding. The hyperfilm was developed using Kodak GBX developer and fixer (Sigma Aldrich, St. Louis, Mo., U.S.A.). The hyperfilm was air-dried overnight before being scanned using the ArtixScan 1800f flatbed scanner (Microtek, Hsinchu, Taiwan), with greyscale using a magnification of 400% and an optical resolution of 2400 pixels per inch. No pre-scanning manipulation or filter was applied.
(§1) Tissue sections from TSPO^+/+, TSPO^+/− and TSPO^−/− mice were incubated at room temperature for 20 min in 170 mM Tris-HCl pH 7.4 containing 1 nM [^3H]PK11195 (specific activity 84 Ci/mmol; Perkin Elmer, Waltham, Mass., USA), washed twice for 5 min in 170 mM Tris-HCl, rinsed with 3 dips in ice-cold MilliQ H2O, and dried. […] Displacement binding was carried out in the presence of PK11195 (10 μM), CLINDE (10 μM) and PBR-11 (10 μM).

[3] = test system: TSPO; assay: Film autoradiography of brain sections after facial nerve axotomy; format: binding, mouse; details: homozygous (TSPO-/-) mice
Text: Procedures for facial nerve axotomy were approved by the animal ethics committee at the University of Sydney. Animals were anaesthetised using Isoflurane anaesthesia. Animals were monitored for a combination of respiration, heart rate, oxygen saturation and temperature during procedures using a variety of monitoring equipment to ensure anaesthetic depth. The surgical process commenced when foot-pad or plantar reflex could no longer be elicited. The fur on the ipsilateral (right) side of the neck was shaved from the ear downwards, and the skin cleaned using 70% ethanol. A small incision (0.5-0.7 cm in length) overlying the musculature covering the stylomastoid foramen was made. The facial nerve was identified, isolated and then transected completely. The skin of incision was closed with heal-glue. […] The animals were euthanized with CO2 3 days after the axotomy and brain tissue, including facial nerve nuclei in the brain stem and cerebellum, was immediately dissected, snap-frozen in liquid nitrogen, and then stored in −80° C. freezer until the cryostat section.
A small incision (0.5-0.7 cm) in the skin 0.5 cm dorsal and lateral to the ear was made and the facial nerve transected under an operating microscope. The incision was closed with 3M™ Vetbond™ Tissue Adhesive (St. Paul, Minn., USA). […] Mice were monitored carefully and euthanized with CO2 three days after the operation. Brains were dissected, placed in OCT, transferred to liquid nitrogen, and stored at −80° C. until cryo-sectioning.
as §1

[4] = test system: TSPO; assay: In vivo PET/CT imaging with [18F]PBR111; set-up: species or system mouse
Method: (§2) PET scans of test mice were performed using a small-animal Inveon PET/CT scanner (Siemens, Knoxville, Tenn., USA). Before scanning, the mice were anesthetized with 5% (v/v) isoflurane and positioned in the PET/CT scanner. The isoflurane level was maintained 1-2% thereafter. The body temperature was maintained with a feedback regulated heating pad and physiologic parameters (respiration and body temperature) were monitored (BioVet; m2m Imaging Corp.) for the entire scanning period. Lacri-lube (Allergan) was placed in the mouse's eyes to prevent drying while the mouse was anesthetized. The PET scans commenced simultaneously with the tail vein injection of [^18F]PBR111 (8-18 MBq/100 μL, 0.2 nmol). After 40 min of imaging, PBR111 (1 mg/kg in 2% acetic acid-saline) was injected via tail vein to determine the non-specific accumulation in organs and imaged for further 10 minutes. Upon completion of PET scanning, mice were CT scanned for 10 minutes for anatomical information. At the end of the study the mice were euthanized immediately after imaging by cervical dislocation while the animal was still fully anaesthetised.
(§3) Mice, anaesthetised (5% (v/v) isoflurane and maintained at 1-2%, were scanned using a small-animal Invcon PET/CT scanner (Siemens, Knoxville, Tenn., USA) according to methods described previously (Disselhorst, J. A. et al. Image-quality assessment for several positron emitters using the NEMA NU 4-2008 standards in the Siemens Inveon small-animal PET scanner. J Nucl Med 51, 610-617, doi:10.2967/jnumed.109.068858 (2010); Mattner, F. et al. Central nervous system expression and PET imaging of the translocator protein in relapsing-remitting experimental autoimmune encephalomyelitis. J Nucl Med 54, 291-298, doi: 10.2967/jnumed.112.108894 (2013)). Body temperature was maintained with a feedback regulated heating pad and respiration monitored (BioVet; m2m Imaging Corp, Cleveland, Ohio, USA). Scans started with the tail vein injection of [^18F]PBR111 (8-18 MBq/100 μL, […]). After 40 min of imaging, PBR111 (1 mg/kg in 2% acetic acid-saline) was injected to determine non-specific accumulation in organs and imaged for 10 minutes. Then, mice underwent a 10-min CT-scan for anatomical information. All PET data were corrected, normalised and reconstructed with an OSEM3D-MAP algorithm to produced PET volumes of activity concentration (kBq/ml).

[5] = target: T1, TSPO; assay: In vivo PET/CT imaging with [18F]PBR111; set-up: from tissue; host or cells: organs of living mice (adrenal gland, kidney, heart, liver, lung, brain)
Method: as §2, §3

With `CC[C@@H](C)N(C)C(=O)c1cc2ccccc2c(-c2ccccc2Cl)n1` [PK11195, 1-(2-chlorophenyl)-N-methyl-N-(1-r-methylpropyl)-3-isoquinolinecarboxamide] the “binding of the TSPO-selective probe PK11195” value [1] was “no binding”, the “competitive binding: displacement of specific binding of [125I]CLINDE and [3H]PK11195 by unlabelled ligand” value (“competitive binding: displacement” for short) [2] was “displaced” and the “intensity of PK11195 binding in the cerebellum” value [3] was “the same as the surrounding background”.

In the case of PBR-111, the “competitive binding: displacement” value [2] is reported as “displaced”.

`CCN(CC)C(=O)Cc1c(-c2ccc(OCCC[18F])cc2)nc2ccc(Cl)cn12` [[^18F]PBR111] was tested, and the “radiotracer observed in PET images” value ([4]; TSPO knock-out (homozygous, TSPO-/-) mouse) was “none”, the “ligand binding in PET/CT images” value ([4]; TSPO-/- mice) was “no ligand binding” and the “specific binding from radioligand kinetics and displacement with cold PBR111” value ([4]; TSPO-/- mice, any organs, cold PBR111 (1 mg/kg)) was “do not have specific binding”. The “time course of radiotracer uptake” value ([4]; adrenal gland, kidney, liver and heart, TSPO knock-out mice (TSPO-/-)) was “rapidly reaches the peak and then declines to the non-specific level”, the “distribution of ligand binding in PET/CT images” value ([5]; TSPO+/+ and TSPO+/- mice) was “in organs with known high TSPO expression, notably kidney and adrenal gland” and the “specific binding from radioligand kinetics and displacement with cold PBR111” value ([5]; TSPO+/+ and TSPO+/- mice, cold PBR111 (1 mg/kg)) was “indicates specific binding”. For the same compound, the “time course of radiotracer uptake” value ([5]; adrenal gland, kidney and liver, wild-type mice (TSPO+/+), until PBR111 at 40 min) was “slowly increases, but maintains a peak level”, the “selectivity for TSPO” value ([5]; in vivo, validated against TSPO-/- null background) was “high selectivity” and the “intensity of radiotracer in PET images” value ([5]; wild-type mouse (TSPO+/+)) was “high intensity”.

With `CCN(CC)C(=O)Cc1c(-c2ccc(I)cc2)nc2ccc(Cl)cn12` [CLINDE] the “competitive binding: displacement” value [2] was “displaced”.
